For series [1] the following is noted: Deprez-Decampaneere et al. 1978; cited from earlier work.
The test system of a further series is Intrinsic Factor (IF). The experiment in a line: modified intrinsic factor blocking antibody (IFBA) assay, competition with Co-57-cyanocobalamin. It counts as binding. The note with it: for averaged percent binding to IF: non-labeled solution (1000 μg/10 mL saline, 1 μL) preincubated with purified IF, then Co-57-cyanocobalamin, average over five patients' runs, estimated from counts vs Clinical run; for binding to IF in the IFBA assay (in words): competition with Co-57 cyanocobalamin, compared with negative reference. The method, then: (§1) Under dim light, 1000 μg of the non-labeled methyl-, adenosyl-, and cyanocobalamin-b-(4-aminobutyl)amide-DTPA, as well as 1000 μg of cyanocobalamin and DTPA (Sigma, St. Louis, Mo. 63178), were separately dissolved in 10 mL of normal saline at room temperature. Each of the five 1000 μg/10 mL samples was stored in sealed, aluminum-wrapped 10 mL vials to prevent exposure to light. No buffers were added to the solutions. The pH of the solutions, measured by a Beckman 40 pH meter (Beckman Instruments, Fullerton, Calif.): Cyanocobalamin=5.75, DTPA=3.78; cyano, methyl and adenosylcobalamin-DTPA analogues were 5.75, 6.10, and 6.19, respectively.
To assess in vitro binding to Intrinsic Factor (IF) and Transcobalamins (TC), the intrinsic factor blocking antibody (IFBA) and Unsaturated vitamin B12 Binding Capacity (UBBC) assays were performed with serum randomly obtained from five patients being evaluated for pernicious anemia at the Mayo Clinic. The IFBA and UBBC assays were first performed for clinical purposes as previously described by V. F. Fairbanks et al., Mayo Clin. Proc., 58, 203 (1983); Intrinsic Factor Blocking Antibody (^57Co) Radioassay-Package insert, Diagnostic Products Corp.; D. Grossowicz et al., Proc. Exp. Biol., 109, 604 (1962) and C. Gottlieb et al., Blood, 25, 6 (1965).
Next, the serum from the same five patients underwent modified IFBA and UBBC assays. Specifically, 1 μL of the five previously described solutions was separately incubated with purified IF or serum, to potentially saturate all IF and TC-binding sites.
After incubation for 20 minutes at room temperature and for another 20 minutes at 4° C., 500 μl of the stock (1000 μg/l) Cobalt-57-cyanocobalamin (Mallinckrodt Medical, Inc., St. Louis, Mo. 63134) solution was added and the usual IFBA and UBBC protocols were then followed. All supernatant activity was counted for four minutes on a gamma counter (Micromedix 10/20, Huntsville, Ala. 35805).
By using the counts of the Clinical run divided into the counts of the five solutions, the efficacy of binding to intrinsic factor can be estimated. The averaged percent binding of the five solutions to IF was: cyanocobalamin=92.5%; methyl-cobalamin-b-(4-aminobutyl)-amide-DTPA=63.2%; cyanocobalamin-b-(4-aminobutyl)-amide-DTPA=52.9%; adenosylcobalamin-b-(4-aminobutyl)-amide-DTPA=41.0% and 0.8% for DTPA.

The test system of series [2] is transcobalamin proteins. The experiment in a line: modified Unsaturated vitamin B12 Binding Capacity (UBBC) assay with patient serum. Details: species or system human. The note with it: non-labeled solution (1000 μg/10 mL saline, 1 μL) preincubated with serum of five patients, then Co-57-cyanocobalamin. The method, then: Louis, Mo. 63178), were separately dissolved in 10 mL of normal saline at room temperature. […] No buffers were added to the solutions. The pH of the solutions, measured by a Beckman 40 pH meter (Beckman Instruments, Fullerton, Calif.): […] To assess in vitro binding to Intrinsic Factor (IF) and Transcobalamins (TC), the intrinsic factor blocking antibody (IFBA) and Unsaturated vitamin B12 Binding Capacity (UBBC) assays were performed with serum randomly obtained from five patients being evaluated for pernicious anemia at the Mayo Clinic. The IFBA and UBBC assays were first performed for clinical purposes as previously described by V. F. Fairbanks et al., Mayo Clin. Proc., 58, 203 (1983); Intrinsic Factor Blocking Antibody (^57Co) Radioassay-Package insert, Diagnostic Products Corp.; D. Grossowicz et al., Proc. Exp. Biol., 109, 604 (1962) and C. Gottlieb et al., Blood, 25, 6 (1965). Next, the serum from the same five patients underwent modified IFBA and UBBC assays. Specifically, 1 μL of the five previously described solutions was separately incubated with purified IF or serum, to potentially saturate all IF and TC-binding sites. […] Louis, Mo. 63134) solution was added and the usual IFBA and UBBC protocols were then followed. All supernatant activity was counted for four minutes on a gamma counter (Micromedix 10/20, Huntsville, Ala. 35805). […] Comparison of cyanocobalamin-DTPA to cyanocobalamin was 66.4% (Transcobalamin II receptor imaging via radiolabeled diethylene-triaminepentaacetate cobalamin analogs, J. Nucl. Med., 38, 717-723 (1997); also described in U.S. Pat. […] A. Collins, […], Tumor Imaging Indium-111-labeled DTPA-adenosylcobalamin, Mayo Clinic Proceedings, 1999; 74; 687-691; Biodistribution of Radiolabeled Adenosylcobalamin in Humans, Review of 30 patents submitted to Mayo Clinic Proceedings). This should improve tumor-to-background ratio, which can be evaluated in murine tumor models. Attachment of either the adenosyl and methyl group as the beta ligand should improve the biological activity as it did with the cyanocobalamin mono-DTPA compound (Transcobalamin II receptor imaging via radiolabeled diethylene-triaminepentaacetate cobalamin analogs, J. Nucl. Med., 38, 717-723 (1997); also described in U.S. Pat.

Series [3] is described as follows: pH of 1000 μg/10 mL solutions in normal saline. In kind it is physicochemical. The note with it: 1000 μg in 10 mL normal saline, room temperature, no buffers. The method, then:
as §1

Series [4] has as its system transcobalamin proteins. The note with it: relative to cyanocobalamin; J. Nucl. Med. 38, 717-723 (1997), U.S. Pat. No. 5,739,313; cited from earlier work.

The text below walks through data of US7531162B2, “Transcobalamin receptor binding conjugates useful for treating abnormal cellular proliferation” (Mayo Foundation for Medical Education and Research, priority 2000, dated 2009).

Turning to `COc1cccc2c1C(=O)c1c(O)c3c(c(O)c1C2=O)CC(O)(C(C)=O)CC3OC1CC(NC(=O)C(N)CC(C)C)C(O)C(C)O1` (single isomer, unassigned) [D isomer], the “hydrolysis in vivo to regenerate daunorubicin” value in series [1] was “not”.
With “Methylcobalamin-b-(4-aminobutyl)amide DTPA”, the “averaged percent binding to IF” value in the series on Intrinsic Factor (IF) was 63.2%. In addition, the “averaged percent binding to the transcobalamin proteins” value with transcobalamin proteins [2] is 94.0%. Moreover, the “pH of the solution” value in series [3] worked out at 6.10.
The corresponding values for “Adenosylcobalamin-b-(4-aminobutyl)amide DTPA” are 41.0%, 90.4% and 6.19.
In the case of `COc1cccc2c1C(=O)c1c(O)c3c(c(O)c1C2=O)C[C@@](O)(C(C)=O)C[C@@H]3O[C@H]1C[C@H](NC(=O)[C@@H](N)CC(C)C)C(O)[C@H](C)O1` (stereo partly drawn) [N-(L-leucyl) daunorubicin], the “hydrolysis in vivo to regenerate daunorubicin” value in series [1] is recorded as “hydrolyzed in vivo to regenerate daunorubicin”.
Regarding “Cyanocobalamin-b-(4-aminobutyl)amide DTPA”, the “averaged percent binding to IF” value with Intrinsic Factor (IF) is 52.9%. Moreover, in the series on transcobalamin proteins [2], the “averaged percent binding to the transcobalamin proteins” value is given as 66.4%. In addition, in series [3], the “pH of the solution” value amounted to 5.75. Also, in the series with transcobalamin proteins [4], the “in vitro UBBC comparison to cyanocobalamin” value is on record as 66.4%.
As to `O=C(O)CN(CCN(CC(=O)O)CC(=O)O)CCN(CC(=O)O)CC(=O)O` [DTPA, diethylenetriaminepentaacetic acid], in the series on Intrinsic Factor (IF), the “binding to IF in the IFBA assay (in words)” value was “does not significantly bind to IF” and the “averaged percent binding to IF” value is reported as 0.8%. Besides, in the series on transcobalamin proteins [2], the “averaged percent binding to the transcobalamin proteins” value was 3.6%. Moreover, the “pH of the solution” value in series [3] is reported as 3.78.
For cyanocobalamin the same measures were “competitively inhibit Co-57 cyanocobalamin from binding to intrinsic factor”, 92.5%, 100% and 5.75.
